Experimental data taken from patent US20050142531A1, “Peptidically buffered formulations for electrotransport applications and methods of making” (priority 2003, published 2005).
Square brackets hold non-standard residues; d marks the D form. Peptide text beside a SMILES is read from it. Cit = NC(=O)NCCC[C@H](N)C(=O)O; Orn = NCCC[C@H](N)C(=O)O

Experiment: pKa, pI and % salt of peptidic buffers
Format: physicochemical
Details: for pI: Table 2; for % salt: fraction ionized with net charge in aqueous solution at pH equal to the pI

| SMILES | pka A (acidic pKa) (Table 2, first acidic pKa) | pka B (basic pKa) (Table 2, first basic pKa) | pka B (basic pKa) (Table 2, second basic pKa) | pka A (acidic pKa) (Table 2, second acidic pKa) | pka A (acidic pKa) (Table 2, third acidic pKa) | pI | % salt | pka B (basic pKa) (Table 2, third basic pKa) |
| --- | --- | --- | --- | --- | --- | --- | --- | --- |
| C[C@H](N)C(=O)N[C@@H](Cc1c[nH]cn1)C(=O)O [Ala-His] (H-Ala-His-OH; N-terminus and C-terminus assumed) | 2.42 | 6.71 | 8.37 | – | – | – | – | – |
| Cn1cncc1C[C@H](NC(=O)CCN)C(=O)O [Anserine] | 2.64 | 7.04 | 9.49 | – | – | – | – | – |
| N=C(N)NCCC[C@H](N)C(=O)N[C@@H](CC(=O)O)C(=O)O [Arg-Asp] (H-Arg-Asp-OH; N-terminus and C-terminus assumed) | 2.64 | 8.05 | 12.50 | 4.10 | – | – | – | – |
| N=C(N)NCCC[C@H](N)C(=O)N[C@@H](CCC(=O)O)C(=O)O [Arg-Glu] (H-Arg-Glu-OH; N-terminus and C-terminus assumed) | 2.74 | 7.92 | 12.50 | 4.18 | – | – | – | – |
| NC(=O)C[C@H](N)C(=O)N[C@@H](Cc1c[nH]cn1)C(=O)O [Asn-His] (H-Asn-His-OH; N-terminus and C-terminus assumed) | 2.42 | 6.71 | 7.30 | – | – | – | – | – |
| N[C@@H](CC(=O)O)C(=O)N[C@@H](CC(=O)O)C(=O)O [Asp-Asp] (H-Asp-Asp-OH; N-terminus and C-terminus assumed) | 2.70 | 8.26 | – | 3.40 | 4.70 | – | – | – |
| N[C@@H](CC(=O)O)C(=O)N[C@@H](Cc1c[nH]cn1)C(=O)O [Asp-His] (H-Asp-His-OH; N-terminus and C-terminus assumed) | 2.45 | 6.81 | 7.98 | 3.02 | – | – | – | – |
| NCCC(=O)N[C@@H](Cc1cnc[nH]1)C(=O)O [Beta-Alanylhistidine] | 2.60 | 6.70 | 8.70 | – | – | 7.70 | 16% | – |
| NCCC(=O)N[C@@H](Cc1cnc[nH]1)C(=O)O [Carnosine] | 2.64 | 6.83 | 9.51 | – | – | 8.17 | 8% | – |
| NC(=O)NCCC[C@H](N)C(=O)N[C@@H](Cc1c[nH]cn1)C(=O)O [Citrulline-His] (H-[Cit]-His-OH; N-terminus and C-terminus assumed) | 2.42 | 6.71 | 7.90 | – | – | – | – | – |
| NC(=O)CC[C@H](N)C(=O)N[C@@H](Cc1c[nH]cn1)C(=O)O [GIn-His] (H-Gln-His-OH; N-terminus and C-terminus assumed) | 2.42 | 6.71 | 7.70 | – | – | – | – | – |
| N=C(N)NCCC[C@H](NC(=O)[C@@H](N)CCC(=O)O)C(=O)O [Glu-Arg] (H-Glu-Arg-OH; N-terminus and C-terminus assumed) | 2.66 | 7.94 | 12.50 | 4.01 | – | – | – | – |
| N[C@@H](CCC(=O)O)C(=O)N[C@@H](Cc1c[nH]cn1)C(=O)O [Glu-His] (H-Glu-His-OH; N-terminus and C-terminus assumed) | 2.45 | 6.81 | 8.20 | 3.45 | – | – | – | – |
| NCC(=O)N[C@@H](CC(=O)O)C(=O)O [Gly-Asp] (H-Gly-Asp-OH; N-terminus and C-terminus assumed) | 2.81 | 8.60 | – | 4.45 | – | – | – | – |
| NC(=O)C[C@H](NC(=O)[C@@H](N)Cc1c[nH]cn1)C(=O)O [His-Asn] (H-His-Asn-OH; N-terminus and C-terminus assumed) | 2.62 | 6.10 | 7.80 | – | – | – | – | – |
| NC(=O)NCCC[C@H](NC(=O)[C@@H](N)Cc1c[nH]cn1)C(=O)O [His-Citrulline] (H-His-[Cit]-OH; N-terminus and C-terminus assumed) | 3.05 | 6.10 | 7.80 | – | – | – | – | – |
| NC(=O)CC[C@H](NC(=O)[C@@H](N)Cc1c[nH]cn1)C(=O)O [His-Gln] (H-His-Gln-OH; N-terminus and C-terminus assumed) | 2.93 | 6.10 | 7.80 | – | – | – | – | – |
| N[C@@H](Cc1c[nH]cn1)C(=O)N[C@@H](Cc1c[nH]cn1)C(=O)O [His-His] | 2.25 | 5.40 | 6.80 | – | – | – | – | 7.95 |
| NCC(O)CC[C@H](NC(=O)[C@@H](N)Cc1c[nH]cn1)C(=O)O (stereo partly drawn) [His-Hydroxylysine] | 3.05 | 6.10 | 7.80 | – | – | – | – | 9.70 |
| N[C@@H](Cc1c[nH]cn1)C(=O)N1CC(O)C[C@H]1C(=O)O (stereo partly drawn) [His-Hydroxyproline] | 2.42 | 6.10 | 7.80 | – | – | – | – | – |

| SMILES | pka A (acidic pKa) (Table 2, first acidic pKa) | pka B (basic pKa) (Table 2, first basic pKa) | pka B (basic pKa) (Table 2, second basic pKa) | pka A (acidic pKa) (Table 2, second acidic pKa) | pka A (acidic pKa) (Table 2, third acidic pKa) | pI | % salt | pka B (basic pKa) (Table 2, third basic pKa) |
| --- | --- | --- | --- | --- | --- | --- | --- | --- |
| CC[C@H](C)[C@H](NC(=O)[C@@H](N)Cc1c[nH]cn1)C(=O)O [His-Isoleucine] (H-His-Ile-OH; N-terminus and C-terminus assumed) | 3.13 | 6.10 | 7.80 | – | – | – | – | – |
| CC(C)C[C@H](NC(=O)[C@@H](N)Cc1c[nH]cn1)C(=O)O [His-Leu] (H-His-Leu-OH; N-terminus and C-terminus assumed) | 3.10 | 6.10 | 7.80 | – | – | – | – | – |
| NCCCC[C@H](NC(=O)[C@@H](N)Cc1c[nH]cn1)C(=O)O [His-Lys] (H-His-Lys-OH; N-terminus and C-terminus assumed) | 3.05 | 6.10 | 7.80 | – | – | – | – | 11.00 |
| CSCC[C@H](NC(=O)[C@@H](N)Cc1c[nH]cn1)C(=O)O [His-Met] (H-His-Met-OH; N-terminus and C-terminus assumed) | 2.89 | 6.10 | 7.80 | – | – | – | – | – |
| NCCC[C@H](NC(=O)[C@@H](N)Cc1c[nH]cn1)C(=O)O [His-Ornithine] (H-His-[Orn]-OH; N-terminus and C-terminus assumed) | 2.82 | 6.10 | 7.80 | – | – | – | – | 11.00 |
| N[C@@H](Cc1c[nH]cn1)C(=O)N[C@@H](Cc1ccccc1)C(=O)O [His-Phe] (H-His-Phe-OH; N-terminus and C-terminus assumed) | 2.88 | 6.10 | 7.80 | – | – | – | – | – |
| N[C@@H](Cc1c[nH]cn1)C(=O)N1CCC[C@H]1C(=O)O [His-Pro] | 2.62 | 6.10 | 7.80 | – | – | – | – | – |
| N[C@@H](Cc1c[nH]cn1)C(=O)N[C@@H](CO)C(=O)O [His-Ser] (H-His-Ser-OH; N-terminus and C-terminus assumed) | 2.65 | 6.10 | 7.80 | – | – | – | – | – |
| C[C@@H](O)[C@H](NC(=O)[C@@H](N)Cc1c[nH]cn1)C(=O)O [His-Thr] (H-His-Thr-OH; N-terminus and C-terminus assumed) | 2.98 | 6.10 | 7.80 | – | – | – | – | – |
| N[C@@H](Cc1c[nH]cn1)C(=O)N[C@@H](Cc1c[nH]c2ccccc12)C(=O)O [His-Trp] | 3.07 | 6.10 | 7.80 | – | – | – | – | – |
| N[C@@H](Cc1c[nH]cn1)C(=O)N[C@@H](Cc1ccc(O)cc1)C(=O)O [His-Tyr] (H-His-Tyr-OH; N-terminus and C-terminus assumed) | 2.13 | 6.10 | 7.80 | 9.97 | – | – | – | – |
| CC(C)[C@H](NC(=O)[C@@H](N)Cc1c[nH]cn1)C(=O)O [His-Val] (H-His-Val-OH; N-terminus and C-terminus assumed) | 3.18 | 6.10 | 7.80 | – | – | – | – | – |
| NCC(O)CC[C@H](N)C(=O)N[C@@H](Cc1c[nH]cn1)C(=O)O (stereo partly drawn) [Hydroxylysine-His] | 2.42 | 6.71 | 7.40 | – | – | – | – | 9.70 |
| O=C(O)[C@H](Cc1c[nH]cn1)NC(=O)[C@@H]1CC(O)CN1 (stereo partly drawn) [Hydroxyproline-His] | 2.42 | 6.71 | 8.23 | – | – | – | – | – |
| CC[C@H](C)[C@H](N)C(=O)N[C@@H](Cc1c[nH]cn1)C(=O)O [Isoleucine-His] (H-Ile-His-OH; N-terminus and C-terminus assumed) | 2.42 | 6.71 | 8.20 | – | – | – | – | – |
| CC(C)C[C@H](N)C(=O)N[C@@H](Cc1c[nH]cn1)C(=O)O [Leu-His] (H-Leu-His-OH; N-terminus and C-terminus assumed) | 2.42 | 6.71 | 8.25 | – | – | – | – | – |
| NCCCC[C@H](N)C(=O)N[C@@H](Cc1c[nH]cn1)C(=O)O [Lys-His] | 2.42 | 6.71 | 8.00 | – | – | – | – | 11.00 |
| CSCC[C@H](N)C(=O)N[C@@H](Cc1c[nH]cn1)C(=O)O [Met-His] (H-Met-His-OH; N-terminus and C-terminus assumed) | 2.42 | 6.71 | 7.97 | – | – | – | – | – |
| NCCC[C@H](N)C(=O)N[C@@H](Cc1c[nH]cn1)C(=O)O [Ornithine-His] | 2.42 | 6.71 | 7.30 | – | – | – | – | 11.00 |
| N[C@@H](Cc1ccccc1)C(=O)N[C@@H](Cc1c[nH]cn1)C(=O)O [Phe-His] (H-Phe-His-OH; N-terminus and C-terminus assumed) | 2.42 | 6.71 | 7.70 | – | – | – | – | – |
